From patent US20240239781A1, “1H-PYRAZOLE DERIVATIVES AS SIGMA LIGANDS” (ACONDICIONAMIENTO TARRASENSE, priority 2021, published 2024) come the findings set out here.

pKi: −log10 of the molar value.

The target of one test is T1, human σ1 receptor (Homo sapiens, UniProt Q99720).
T1 construct: expressed in transfected cells; host or cells: HEK-293
As to the kind of experiment: Human σ1 receptor radioligand assay ([3H](+)-pentazocine, transfected HEK-293 membranes). The settings on record: class scale, read-out: Binding σ-1 Ki. Summed up: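 Compounds were tested at a single 1 or 10 μM concentration (% inhibition) or at five concentrations to give Ki. They competed with 5 nM [3H](+)-pentazocine for transfected HEK-293 membranes (7 μg) in 50 mM Tris-HCl pH 8 at 37° C for 120 minutes. Nonspecific binding was set with 10 μM haloperidol, and a filtration scintillation read-out was used.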

Another test deals with T2, human σ2/TMEM97 receptor (Homo sapiens, UniProt Q5BJF2).
T2 construct: expressed in transfected cells; host or cells: HEK-293
T2 sequence (Q5BJF2 whole entry): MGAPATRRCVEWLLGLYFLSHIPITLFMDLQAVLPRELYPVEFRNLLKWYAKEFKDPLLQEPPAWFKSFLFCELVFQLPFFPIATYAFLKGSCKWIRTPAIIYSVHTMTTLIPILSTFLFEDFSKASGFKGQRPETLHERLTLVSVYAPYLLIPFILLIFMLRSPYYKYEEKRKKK
The test is described as follows: Binding assay to human σ2/TMEM97 receptor ([3H]-DTG, transfected HEK-293 membranes). The settings on record: class scale, read-out: Binding σ-2 Ki. Summed up: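 Competition against 10 nM [3H]-DTG (Tris-HCl 50 mM, pH 8.0, 25 °C, 120 min) using 15 μg transfected HEK-293 membrane protein, with 10 μM haloperidol defining NSB. Bound radioactivity counted after filtration; results as single-point % inhibition (1 or 10 μM) or five-point Ki.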

A word on the pKi: it is the negative decadic logarithm of the Ki, by convention in mol/L.

T1 sequence (Q99720 whole entry): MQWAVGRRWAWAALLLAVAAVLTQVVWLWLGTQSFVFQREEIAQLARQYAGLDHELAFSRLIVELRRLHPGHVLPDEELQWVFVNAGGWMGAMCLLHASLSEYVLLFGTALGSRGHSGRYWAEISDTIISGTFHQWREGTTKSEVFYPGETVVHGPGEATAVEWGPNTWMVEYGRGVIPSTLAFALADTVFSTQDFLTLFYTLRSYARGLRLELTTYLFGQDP

As for `Cc1cc(-c2nn(C)c(Cl)c2CN2CCC3(CCN(CCC(C)(C)C)CC3)C2=O)no1` [Example 114, 2-((5-Chloro-1-methyl-3-(5-methylisoxazol-3-yl)-1H-pyrazol-4-yl)methyl)-8-(3,3-dimethylbutyl)-2,8-diazaspiro[4.5]decan-1-one], the pKi on human σ1 receptor and at human σ2/TMEM97 receptor was 6.30 to 7.00 throughout.

Turning to `Cc1cc(-c2nn(C)c(Cl)c2CN2CCC3(CCN(CCC(C)(C)C)CC3)CC2=O)no1` [Example 115, 3-((5-Chloro-1-methyl-3-(5-methylisoxazol-3-yl)-1H-pyrazol-4-yl)methyl)-9-(3,3-dimethylbutyl)-3,9-diazaspiro[5.5]undecan-2-one], the pKi on human σ1 receptor is 6.30 to 7.00; on human σ2/TMEM97 receptor it was greater than 7.00.

`Cc1cc(-c2nn(C)c(Cl)c2CN2CC3(CCN(CCC(C)(C)C)CC3)CC2=O)no1` [Example 116, 2-((5-Chloro-1-methyl-3-(5-methylisoxazol-3-yl)-1H-pyrazol-4-yl)methyl)-8-(3,3-dimethylbutyl)-2,8-diazaspiro[4.5]decan-3-one]: the results for the pKi on human σ1 receptor and at human σ2/TMEM97 receptor were 6.30 to 7.00 and greater than 7.00, respectively.

On to `Cc1cc(-c2nn(C)c(Cl)c2CN2CCCCC(NCCC(C)C)C2=O)no1` (stereo not shown) [Example 117, 1-((5-Chloro-1-methyl-3-(5-methylisoxazol-3-yl)-1H-pyrazol-4-yl)methyl)-3-(isopentylamino)azepan-2-one], for which the figures for the pKi at human σ1 receptor and at human σ2/TMEM97 receptor were 6.30 to 7.00 and less than 6.00, respectively.

Regarding `Cc1cc(-c2nn(C)c(Cl)c2CN2CCCC(NCCC(C)C)CC2=O)no1` (stereo not shown) [Example 118, 1-((5-Chloro-1-methyl-3-(5-methylisoxazol-3-yl)-1H-pyrazol-4-yl)methyl)-4-(isopentylamino)azepan-2-one], the figures for the negative-log Ki (pKi) on human σ1 receptor and on human σ2/TMEM97 receptor were less than 6.00 and 6.30 to 7.00, respectively.

On to `Cc1cc(-c2nn(C)c(Cl)c2CCN2CCCC[C@H](NCCC(C)C)C2)no1` [Example 119, (S)-1-(2-(5-Chloro-1-methyl-3-(5-methylisoxazol-3-yl)-1H-pyrazol-4-yl)ethyl)-N-isopentylazepan-3-amine], for which the negative logarithm of the Ki (pKi) at human σ1 receptor is greater than 7.00; on human σ2/TMEM97 receptor, 6.30 to 7.00.

Regarding `Cc1cc(-c2nn(C)c(Cl)c2CC(=O)N2CCC3(CCN(CCC(C)C)CC3)CC2)no1` [Example 120], the pKi at human σ1 receptor was 6.30 to 7.00; at human σ2/TMEM97 receptor it was greater than 7.00.

`Cc1cc(-c2nn(C)c(Cl)c2C(=O)N2CCCC(CN(C)CCC(C)(C)C)C2)no1` (stereo not shown) [Example 121, (5-Chloro-1-methyl-3-(5-methylisoxazol-3-yl)-1H-pyrazol-4-yl)(3-(((3,3-dimethylbutyl)(methyl)amino)methyl)piperidin-1-yl)methanone]: the negative-log Ki (pKi) on human σ1 receptor and at human σ2/TMEM97 receptor was 6.30 to 7.00 each time.

Consider `Cc1cc(-c2nn(C)c(Cl)c2C(=O)N2CCCC(CN(C)CC(C)C)C2)no1` (stereo not shown) [Example 122, (5-Chloro-1-methyl-3-(5-methylisoxazol-3-yl)-1H-pyrazol-4-yl)(3-((isobutyl(methyl)amino)methyl)piperidin-1-yl)methanone], for which the pKi at human σ1 receptor and on human σ2/TMEM97 receptor was less than 6.00 in each case.

Regarding `Cc1cc(-c2nn(C)c(Cl)c2C(=O)N2CC[C@]3(C2)C[C@@H](NCCC(C)(C)C)C3)no1` [Example 123, (5-Chloro-1-methyl-3-(5-methylisoxazol-3-yl)-1H-pyrazol-4-yl)((2r,4s)-2-((3,3-dimethylbutyl)amino)-6-azaspiro[3.4]octan-6-yl)methanone], the negative-log Ki (pKi) at human σ1 receptor was less than 6.00; at human σ2/TMEM97 receptor, greater than 7.00.

As for `Cn1nc(-c2cccc(O)n2)c(C(=O)N2CCC3(CCN(CCC(C)(C)C)CC3)CC2)c1Cl` [Example 124, (5-Chloro-3-(6-hydroxypyridin-2-yl)-1-methyl-1H-pyrazol-4-yl)(9-(3,3-dimethylbutyl)-3,9-diazaspiro[5.5]undecan-3-yl)methanone], the pKi was less than 6.00 on human σ1 receptor and 6.30 to 7.00 at human σ2/TMEM97 receptor.

For the compound `Cc1cc(-c2nn(C)c(Cl)c2C(=O)N2CCC[C@H](CNCCC(C)C)C2)no1` [Example 125, (R)-(5-Chloro-1-methyl-3-(5-methylisoxazol-3-yl)-1H-pyrazol-4-yl)(3-((isopentylamino)methyl)piperidin-1-yl)methanone], the results for the pKi on human σ1 receptor and on human σ2/TMEM97 receptor were less than 6.00 and 6.00 to 6.30, respectively.

As to `Cc1cc(-c2nn(C)c(Cl)c2C(=O)N2CCC[C@@H](CNCCC(C)C)C2)no1` [Example 126, (S)-(5-Chloro-1-methyl-3-(5-methylisoxazol-3-yl)-1H-pyrazol-4-yl)(3-((isopentylamino)methyl)piperidin-1-yl)methanone], the pKi at human σ1 receptor and on human σ2/TMEM97 receptor was less than 6.00 throughout.

Consider `CCn1nc(-c2cc(C)on2)c(C(=O)NC2CC3(CCN(CCC(C)(C)C)CC3)C2)c1Cl` [Example 127, 5-Chloro-N-(7-(3,3-dimethylbutyl)-7-azaspiro[3.5]nonan-2-yl)-1-ethyl-3-(5-methylisoxazol-3-yl)-1H-pyrazole-4-carboxamide], for which the pKi on human σ1 receptor and on human σ2/TMEM97 receptor was greater than 7.00 each time.

As to `Cc1cc(-c2nn(C)c(Cl)c2C(=O)N2CCCC3(CCN(Cc4ccc(F)c(F)c4)CC3)C2)no1` [Example 128, (5-Chloro-1-methyl-3-(5-methylisoxazol-3-yl)-1H-pyrazol-4-yl)(9-(3,4-difluorobenzyl)-2,9-diazaspiro[5.5]undecan-2-yl)methanone], the pKi on human σ1 receptor is 6.30 to 7.00; on human σ2/TMEM97 receptor it was greater than 7.00.

In the case of `Cc1cc(-c2nn(C)c(Cl)c2C(=O)N2CCC3(CCN(Cc4ccc(F)cc4)CC3)CC2)no1` [Example 129, (5-Chloro-1-methyl-3-(5-methylisoxazol-3-yl)-1H-pyrazol-4-yl)(9-(4-fluorobenzyl)-3,9-diazaspiro[5.5]undecan-3-yl)methanone], the negative-log Ki (pKi) at human σ1 receptor was 6.30 to 7.00; on human σ2/TMEM97 receptor, greater than 7.00.

`Cc1cc(-c2nn(C)c(Cl)c2C(=O)N2CCC3(CCN(Cc4ccc(F)c(F)c4)CC3)CC2)no1` [Example 130, (5-Chloro-1-methyl-3-(5-methylisoxazol-3-yl)-1H-pyrazol-4-yl)(9-(3,4-difluorobenzyl)-3,9-diazaspiro[5.5]undecan-3-yl)methanone]: the figures for the pKi at human σ1 receptor and on human σ2/TMEM97 receptor were 6.00 to 6.30 and 6.30 to 7.00, respectively.

For the compound `Cc1cc(-c2nn(C)c(Cl)c2C(=O)N2CCC3(CCN(Cc4ccc(C#N)c(F)c4)CC3)CC2)no1` [Example 131, 4-((9-(5-Chloro-1-methyl-3-(5-methylisoxazol-3-yl)-1H-pyrazole-4-carbonyl)-3,9-diazaspiro[5.5]undecan-3-yl)methyl)-2-fluorobenzonitrile], the pKi at human σ1 receptor and at human σ2/TMEM97 receptor was 6.00 to 6.30 throughout.

`CC(C)c1cc(-c2nn(C)c(Cl)c2C(=O)N2CCCC3(CCN(CCC(C)(C)C)CC3)C2)no1` [Example 132, (5-Chloro-3-(5-isopropylisoxazol-3-yl)-1-methyl-1H-pyrazol-4-yl)(9-(3,3-dimethylbutyl)-2,9-diazaspiro[5.5]undecan-2-yl)methanone]: the pKi at human σ1 receptor was 6.30 to 7.00; at human σ2/TMEM97 receptor, greater than 7.00.

`CCc1nc(C)c(-c2nn(C)c(Cl)c2C(=O)N2CCCC3(CCN(CCC(C)(C)C)CC3)C2)o1` [Example 133, (5-Chloro-3-(2-ethyl-4-methyloxazol-5-yl)-1-methyl-1H-pyrazol-4-yl)(9-(3,3-dimethylbutyl)-2,9-diazaspiro[5.5]undecan-2-yl)methanone]: the results for the pKi on human σ1 receptor and on human σ2/TMEM97 receptor were 6.00 to 6.30 and greater than 7.00, respectively.

In the case of `CCn1nc(-c2cc(C)on2)c(C(=O)NC2CCC3(CC2)CN(CCC(C)(C)C)C3)c1Cl` [Example 134, 5-Chloro-N-(2-(3,3-dimethylbutyl)-2-azaspiro[3.5]nonan-7-yl)-1-ethyl-3-(5-methylisoxazol-3-yl)-1H-pyrazole-4-carboxamide], the pKi on human σ1 receptor and on human σ2/TMEM97 receptor was greater than 7.00 in each case.

Regarding `Cn1cc(-c2nn(C)c(Cl)c2C(=O)N2CCCC3(CCN(CCC(C)(C)C)CC3)C2)cn1` [Example 135, (5-Chloro-1,1′-dimethyl-1H,1′H-[3,4′-bipyrazol]-4-yl)(9-(3,3-dimethylbutyl)-2,9-diazaspiro[5.5]undecan-2-yl)methanone], the negative-log Ki (pKi) at human σ1 receptor was less than 6.00; at human σ2/TMEM97 receptor, greater than 7.00.

In the case of `CCc1cc(-c2nn(CC)c(Cl)c2C(=O)NC2CC3(CCN(CCC(C)(C)C)CC3)C2)no1` [Example 136, 5-Chloro-N-(7-(3,3-dimethylbutyl)-7-azaspiro[3.5]nonan-2-yl)-1-ethyl-3-(5-ethylisoxazol-3-yl)-1H-pyrazole-4-carboxamide], the pKi on human σ1 receptor and on human σ2/TMEM97 receptor was greater than 7.00 in each case.

In the case of `CCc1cc(-c2nn(CC)c(Cl)c2C(=O)NC2CCC3(CC2)CN(CCC(C)(C)C)C3)no1` [Example 137, 5-Chloro-N-(2-(3,3-dimethylbutyl)-2-azaspiro[3.5]nonan-7-yl)-1-ethyl-3-(5-ethylisoxazol-3-yl)-1H-pyrazole-4-carboxamide], the pKi at human σ1 receptor and on human σ2/TMEM97 receptor was greater than 7.00 in each case.

Consider `CCn1ccc(-c2nn(C)c(Cl)c2C(=O)N2CCCC3(CCN(CCC(C)(C)C)CC3)C2)n1` [Example 138, (5-Chloro-1′-ethyl-1-methyl-1H,1′H-[3,3′-bipyrazol]-4-yl)(9-(3,3-dimethylbutyl)-2,9-diazaspiro[5.5]undecan-2-yl)methanone], for which the pKi on human σ1 receptor is 6.00 to 6.30; on human σ2/TMEM97 receptor it was greater than 7.00.

As for `CCn1nc(-c2ccon2)c(C(=O)NC2CC3(CCN(CCC(C)(C)C)CC3)C2)c1Cl` [Example 139, 5-Chloro-N-(7-(3,3-dimethylbutyl)-7-azaspiro[3.5]nonan-2-yl)-1-ethyl-3-(isoxazol-3-yl)-1H-pyrazole-4-carboxamide], the pKi on human σ1 receptor is 6.30 to 7.00; at human σ2/TMEM97 receptor, greater than 7.00.
